Key:
Adenosine receptor A3 = molecular target: T1, Adenosine receptor A3 (Homo sapiens, UniProt P0DMS8)
T1 sequence (P0DMS8 whole entry): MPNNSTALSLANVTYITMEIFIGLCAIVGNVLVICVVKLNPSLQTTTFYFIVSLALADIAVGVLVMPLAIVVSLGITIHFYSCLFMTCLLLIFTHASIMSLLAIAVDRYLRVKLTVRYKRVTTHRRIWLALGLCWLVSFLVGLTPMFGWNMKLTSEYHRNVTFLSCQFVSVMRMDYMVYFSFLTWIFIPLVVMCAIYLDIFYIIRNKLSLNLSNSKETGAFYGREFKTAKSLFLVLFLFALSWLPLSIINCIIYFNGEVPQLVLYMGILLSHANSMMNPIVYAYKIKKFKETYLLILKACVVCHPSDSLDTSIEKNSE

[1] = molecular target: Voltage-dependent L-type calcium channel subunit alpha-1C (Rattus norvegicus, UniProt P22002); type: functional
Voltage-dependent L-type calcium channel subunit alpha-1C, sequence (P22002 whole entry): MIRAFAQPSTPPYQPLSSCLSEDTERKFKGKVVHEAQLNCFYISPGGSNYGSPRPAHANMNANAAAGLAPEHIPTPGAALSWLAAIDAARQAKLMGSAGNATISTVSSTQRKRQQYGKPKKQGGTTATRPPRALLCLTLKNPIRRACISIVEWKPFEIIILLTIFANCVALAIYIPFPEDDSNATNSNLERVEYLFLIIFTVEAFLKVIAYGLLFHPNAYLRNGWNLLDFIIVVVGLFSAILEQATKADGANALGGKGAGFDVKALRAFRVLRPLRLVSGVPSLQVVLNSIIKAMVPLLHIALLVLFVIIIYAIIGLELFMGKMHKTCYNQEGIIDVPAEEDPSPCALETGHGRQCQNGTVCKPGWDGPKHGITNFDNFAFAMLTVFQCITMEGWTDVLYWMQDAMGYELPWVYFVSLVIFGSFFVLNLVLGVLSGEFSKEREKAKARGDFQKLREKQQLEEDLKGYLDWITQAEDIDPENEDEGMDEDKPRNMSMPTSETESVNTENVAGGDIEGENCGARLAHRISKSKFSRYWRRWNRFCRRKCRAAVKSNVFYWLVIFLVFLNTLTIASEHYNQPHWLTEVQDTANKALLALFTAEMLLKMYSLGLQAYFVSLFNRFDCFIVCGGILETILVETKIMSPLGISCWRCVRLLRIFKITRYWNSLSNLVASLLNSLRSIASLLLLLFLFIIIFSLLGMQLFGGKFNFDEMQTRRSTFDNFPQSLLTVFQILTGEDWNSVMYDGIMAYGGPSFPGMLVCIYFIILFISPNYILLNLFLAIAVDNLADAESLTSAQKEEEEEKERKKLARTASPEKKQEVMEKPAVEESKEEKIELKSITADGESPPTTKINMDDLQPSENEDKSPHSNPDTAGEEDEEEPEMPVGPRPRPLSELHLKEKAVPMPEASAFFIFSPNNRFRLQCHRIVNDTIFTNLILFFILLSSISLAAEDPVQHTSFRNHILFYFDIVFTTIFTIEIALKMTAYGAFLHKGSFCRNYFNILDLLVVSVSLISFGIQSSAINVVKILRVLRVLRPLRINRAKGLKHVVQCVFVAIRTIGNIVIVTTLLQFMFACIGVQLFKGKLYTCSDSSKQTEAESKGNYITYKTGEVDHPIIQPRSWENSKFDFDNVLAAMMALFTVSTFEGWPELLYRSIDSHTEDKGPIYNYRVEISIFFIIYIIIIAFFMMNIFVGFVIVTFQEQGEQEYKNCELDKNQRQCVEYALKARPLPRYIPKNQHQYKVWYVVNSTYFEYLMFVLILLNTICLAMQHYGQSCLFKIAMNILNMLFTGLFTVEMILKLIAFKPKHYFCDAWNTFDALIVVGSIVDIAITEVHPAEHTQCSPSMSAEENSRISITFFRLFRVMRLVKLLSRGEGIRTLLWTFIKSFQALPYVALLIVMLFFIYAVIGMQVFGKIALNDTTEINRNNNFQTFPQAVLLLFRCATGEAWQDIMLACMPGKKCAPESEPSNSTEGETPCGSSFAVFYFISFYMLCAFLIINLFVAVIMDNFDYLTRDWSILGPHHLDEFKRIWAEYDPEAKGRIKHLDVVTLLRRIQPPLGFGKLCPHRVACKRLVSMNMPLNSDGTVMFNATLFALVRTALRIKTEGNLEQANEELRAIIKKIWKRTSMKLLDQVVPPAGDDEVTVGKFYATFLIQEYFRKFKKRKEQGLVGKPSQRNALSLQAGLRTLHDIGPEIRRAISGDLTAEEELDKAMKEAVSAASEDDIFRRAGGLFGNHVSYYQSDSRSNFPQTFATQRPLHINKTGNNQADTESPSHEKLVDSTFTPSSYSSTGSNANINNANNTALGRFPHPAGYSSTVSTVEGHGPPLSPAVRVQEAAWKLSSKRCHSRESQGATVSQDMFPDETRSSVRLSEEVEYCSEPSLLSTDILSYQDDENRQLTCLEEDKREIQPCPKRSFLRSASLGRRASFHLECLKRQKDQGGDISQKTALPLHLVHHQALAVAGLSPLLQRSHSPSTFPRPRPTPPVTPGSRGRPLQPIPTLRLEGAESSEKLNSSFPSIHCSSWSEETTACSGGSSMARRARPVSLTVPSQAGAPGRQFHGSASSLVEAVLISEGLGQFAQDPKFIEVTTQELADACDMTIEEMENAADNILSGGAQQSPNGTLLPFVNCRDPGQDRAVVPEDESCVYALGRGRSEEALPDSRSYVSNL

[2] = molecular target: Muscarinic acetylcholine receptor M3 (Homo sapiens, UniProt P20309)
[3] = molecular target: Neuronal acetylcholine receptor subunit alpha-4 (Homo sapiens, UniProt P43681)
Neuronal acetylcholine receptor subunit alpha-4, sequence (P43681 whole entry): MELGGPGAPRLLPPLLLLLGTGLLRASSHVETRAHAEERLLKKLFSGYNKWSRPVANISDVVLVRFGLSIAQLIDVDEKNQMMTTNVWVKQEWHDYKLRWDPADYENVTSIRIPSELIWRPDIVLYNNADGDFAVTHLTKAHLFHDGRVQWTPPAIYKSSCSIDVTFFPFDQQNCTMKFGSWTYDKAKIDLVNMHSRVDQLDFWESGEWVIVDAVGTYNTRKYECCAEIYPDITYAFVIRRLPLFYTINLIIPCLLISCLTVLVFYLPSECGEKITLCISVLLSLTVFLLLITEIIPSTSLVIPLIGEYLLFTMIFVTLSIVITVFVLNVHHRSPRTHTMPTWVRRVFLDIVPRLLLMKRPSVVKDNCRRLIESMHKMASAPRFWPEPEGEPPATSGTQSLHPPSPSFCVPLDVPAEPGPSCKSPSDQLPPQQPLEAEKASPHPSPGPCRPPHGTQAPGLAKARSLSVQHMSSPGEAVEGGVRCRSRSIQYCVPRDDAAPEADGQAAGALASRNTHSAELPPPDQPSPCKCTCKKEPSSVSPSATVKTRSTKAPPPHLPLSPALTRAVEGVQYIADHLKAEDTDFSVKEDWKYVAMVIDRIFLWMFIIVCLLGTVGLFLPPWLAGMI

[4] = molecular target: Gamma-aminobutyric acid receptor subunit alpha-1 (Rattus norvegicus, UniProt P62813); type: functional
[5] = molecular target: T2, 5-hydroxytryptamine receptor 1A (Homo sapiens, UniProt P08908); type: functional, cell-based
T2 sequence (P08908 whole entry): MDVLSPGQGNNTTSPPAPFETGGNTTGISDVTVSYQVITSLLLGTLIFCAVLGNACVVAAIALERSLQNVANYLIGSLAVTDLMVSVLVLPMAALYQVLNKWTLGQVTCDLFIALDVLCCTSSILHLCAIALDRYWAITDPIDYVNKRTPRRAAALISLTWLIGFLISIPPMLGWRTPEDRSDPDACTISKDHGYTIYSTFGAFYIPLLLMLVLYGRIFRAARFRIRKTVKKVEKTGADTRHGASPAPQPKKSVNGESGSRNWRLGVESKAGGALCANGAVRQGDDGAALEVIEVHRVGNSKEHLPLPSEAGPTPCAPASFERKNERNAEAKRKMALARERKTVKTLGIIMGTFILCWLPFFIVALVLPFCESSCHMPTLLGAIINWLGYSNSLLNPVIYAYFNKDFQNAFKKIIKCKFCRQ

[6] = molecular target: Voltage-gated inwardly rectifying potassium channel KCNH2 (Homo sapiens, UniProt Q12809); type: functional
[7] = molecular target: Kappa-type opioid receptor (Homo sapiens, UniProt P41145)
Kappa-type opioid receptor, sequence (P41145 whole entry): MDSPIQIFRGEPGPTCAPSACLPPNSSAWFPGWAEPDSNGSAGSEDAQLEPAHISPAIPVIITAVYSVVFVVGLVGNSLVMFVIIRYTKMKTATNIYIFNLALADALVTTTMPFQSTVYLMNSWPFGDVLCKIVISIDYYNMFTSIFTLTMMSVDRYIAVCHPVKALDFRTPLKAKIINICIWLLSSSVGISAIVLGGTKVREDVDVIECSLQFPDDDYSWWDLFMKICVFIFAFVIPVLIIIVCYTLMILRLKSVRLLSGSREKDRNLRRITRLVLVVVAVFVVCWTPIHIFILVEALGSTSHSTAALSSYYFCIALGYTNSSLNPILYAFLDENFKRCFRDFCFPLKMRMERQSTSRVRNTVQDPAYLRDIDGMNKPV

Mu-type opioid receptor = Mu-type opioid receptor (Homo sapiens, UniProt P35372); experiment: biochemical; type: functional
[8] = molecular target: 3',5'-cyclic-AMP phosphodiesterase 4D (Homo sapiens, UniProt Q08499); type: functional
3',5'-cyclic-AMP phosphodiesterase 4D, sequence (Q08499 whole entry): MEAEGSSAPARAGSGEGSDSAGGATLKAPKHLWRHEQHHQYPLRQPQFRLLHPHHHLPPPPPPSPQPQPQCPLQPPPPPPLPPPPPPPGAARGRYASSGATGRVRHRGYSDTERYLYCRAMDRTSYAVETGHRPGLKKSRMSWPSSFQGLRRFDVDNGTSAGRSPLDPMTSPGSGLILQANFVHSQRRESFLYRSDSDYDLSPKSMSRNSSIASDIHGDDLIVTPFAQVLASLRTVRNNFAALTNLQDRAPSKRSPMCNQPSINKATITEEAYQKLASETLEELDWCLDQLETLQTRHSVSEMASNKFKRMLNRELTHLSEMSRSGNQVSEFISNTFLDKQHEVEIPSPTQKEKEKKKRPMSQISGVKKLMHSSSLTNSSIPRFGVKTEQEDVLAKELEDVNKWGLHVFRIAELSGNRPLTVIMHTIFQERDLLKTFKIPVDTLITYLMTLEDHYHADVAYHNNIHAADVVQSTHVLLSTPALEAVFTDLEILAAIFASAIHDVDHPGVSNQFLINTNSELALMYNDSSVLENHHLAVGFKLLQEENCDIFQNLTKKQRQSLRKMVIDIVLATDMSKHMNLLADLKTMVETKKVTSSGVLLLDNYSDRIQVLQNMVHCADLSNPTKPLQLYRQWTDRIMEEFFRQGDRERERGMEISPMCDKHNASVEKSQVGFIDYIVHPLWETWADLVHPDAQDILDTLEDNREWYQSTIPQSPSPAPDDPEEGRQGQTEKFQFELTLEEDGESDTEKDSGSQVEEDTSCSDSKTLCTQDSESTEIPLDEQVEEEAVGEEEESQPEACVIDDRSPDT

Progesterone receptor = molecular target: T3, Progesterone receptor (Homo sapiens, UniProt P06401); type: functional
T3 sequence (P06401 whole entry): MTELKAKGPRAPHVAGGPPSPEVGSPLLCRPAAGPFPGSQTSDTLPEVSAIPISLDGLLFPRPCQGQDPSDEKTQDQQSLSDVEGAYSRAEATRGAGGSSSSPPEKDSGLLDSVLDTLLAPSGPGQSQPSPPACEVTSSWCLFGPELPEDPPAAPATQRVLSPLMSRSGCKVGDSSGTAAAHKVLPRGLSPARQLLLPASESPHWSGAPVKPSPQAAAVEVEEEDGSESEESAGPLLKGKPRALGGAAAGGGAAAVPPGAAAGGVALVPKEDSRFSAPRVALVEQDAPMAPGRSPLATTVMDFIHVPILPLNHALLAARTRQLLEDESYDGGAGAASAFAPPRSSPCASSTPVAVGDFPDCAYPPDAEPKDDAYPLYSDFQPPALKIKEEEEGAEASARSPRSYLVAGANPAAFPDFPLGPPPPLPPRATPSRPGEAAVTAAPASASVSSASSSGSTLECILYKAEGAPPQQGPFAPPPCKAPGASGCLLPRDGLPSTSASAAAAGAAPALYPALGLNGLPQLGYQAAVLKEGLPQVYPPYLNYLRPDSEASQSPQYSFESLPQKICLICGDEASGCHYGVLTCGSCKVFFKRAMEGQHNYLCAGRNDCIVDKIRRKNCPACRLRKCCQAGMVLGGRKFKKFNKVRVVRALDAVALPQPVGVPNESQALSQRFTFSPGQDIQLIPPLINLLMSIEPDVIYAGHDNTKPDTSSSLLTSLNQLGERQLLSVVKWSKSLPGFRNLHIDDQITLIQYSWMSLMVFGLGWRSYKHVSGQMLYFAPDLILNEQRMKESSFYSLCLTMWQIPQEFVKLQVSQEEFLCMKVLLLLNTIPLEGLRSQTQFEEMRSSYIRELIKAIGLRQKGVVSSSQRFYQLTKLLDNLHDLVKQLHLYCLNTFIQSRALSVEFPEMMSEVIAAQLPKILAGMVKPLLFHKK

[9] = molecular target: cGMP-inhibited 3',5'-cyclic phosphodiesterase 3A (Homo sapiens, UniProt Q14432); type: functional
cGMP-inhibited 3',5'-cyclic phosphodiesterase 3A, sequence (Q14432 whole entry): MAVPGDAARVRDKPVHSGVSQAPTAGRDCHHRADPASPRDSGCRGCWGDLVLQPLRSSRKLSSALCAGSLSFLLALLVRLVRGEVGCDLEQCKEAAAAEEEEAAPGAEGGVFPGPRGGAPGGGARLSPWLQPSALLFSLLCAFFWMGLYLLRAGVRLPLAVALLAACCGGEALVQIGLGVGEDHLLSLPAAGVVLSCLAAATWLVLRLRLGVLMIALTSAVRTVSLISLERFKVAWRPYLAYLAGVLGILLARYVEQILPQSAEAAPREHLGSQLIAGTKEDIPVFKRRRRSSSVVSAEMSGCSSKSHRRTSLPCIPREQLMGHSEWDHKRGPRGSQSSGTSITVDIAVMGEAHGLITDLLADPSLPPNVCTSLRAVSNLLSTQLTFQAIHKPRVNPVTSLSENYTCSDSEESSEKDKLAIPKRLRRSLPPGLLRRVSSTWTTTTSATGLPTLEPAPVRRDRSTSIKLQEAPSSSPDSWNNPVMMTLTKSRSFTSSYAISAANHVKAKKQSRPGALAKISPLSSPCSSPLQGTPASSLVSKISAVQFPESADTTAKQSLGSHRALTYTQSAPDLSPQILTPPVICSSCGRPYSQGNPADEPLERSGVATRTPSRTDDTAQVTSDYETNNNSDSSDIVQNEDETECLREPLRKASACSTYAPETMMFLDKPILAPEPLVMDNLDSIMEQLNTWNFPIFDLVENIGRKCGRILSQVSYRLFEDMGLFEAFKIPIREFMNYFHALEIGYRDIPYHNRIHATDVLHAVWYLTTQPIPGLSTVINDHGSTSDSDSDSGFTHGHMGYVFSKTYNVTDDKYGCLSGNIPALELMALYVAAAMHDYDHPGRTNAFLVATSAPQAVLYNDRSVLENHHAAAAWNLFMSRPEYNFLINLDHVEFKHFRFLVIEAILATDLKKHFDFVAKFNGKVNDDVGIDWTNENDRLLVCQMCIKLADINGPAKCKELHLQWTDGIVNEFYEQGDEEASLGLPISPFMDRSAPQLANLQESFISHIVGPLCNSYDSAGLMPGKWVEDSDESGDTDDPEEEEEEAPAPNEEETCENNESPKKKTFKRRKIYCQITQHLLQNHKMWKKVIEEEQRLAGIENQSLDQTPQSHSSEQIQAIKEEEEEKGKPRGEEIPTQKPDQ

[10] = molecular target: T4, Alpha-1A adrenergic receptor (Homo sapiens, UniProt P35348); type: functional, cell-based
T4 sequence (P35348 whole entry): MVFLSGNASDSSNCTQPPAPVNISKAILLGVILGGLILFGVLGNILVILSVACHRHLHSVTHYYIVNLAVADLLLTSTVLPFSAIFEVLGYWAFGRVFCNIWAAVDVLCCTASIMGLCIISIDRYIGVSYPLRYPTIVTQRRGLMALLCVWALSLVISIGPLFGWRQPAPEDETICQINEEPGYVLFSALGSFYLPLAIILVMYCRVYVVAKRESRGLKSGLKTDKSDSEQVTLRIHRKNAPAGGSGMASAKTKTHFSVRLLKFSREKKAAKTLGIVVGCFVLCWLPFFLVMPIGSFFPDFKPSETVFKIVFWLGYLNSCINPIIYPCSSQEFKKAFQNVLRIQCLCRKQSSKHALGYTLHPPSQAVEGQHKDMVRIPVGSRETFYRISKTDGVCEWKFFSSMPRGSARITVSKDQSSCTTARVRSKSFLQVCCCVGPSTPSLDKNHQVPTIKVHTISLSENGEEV
Also: assay procedure not described here.

Compound | AC50 (Adenosine receptor A3) [µM] | AC50 [1] [µM] | AC50 [2] [µM] | AC50 [3] [µM] | AC50 [4] [µM] | AC50 [5] [µM] | AC50 [7] [µM] | AC50 (Mu-type opioid receptor) [µM] | AC50 [8] [µM] | AC50 (Progesterone receptor) [µM] | AC50 [9] [µM] | AC50 [10] [µM] | AC50 [6] [µM]
CCC(COC(=O)c1cc(OC)c(OC)c(OC)c1)(c1ccccc1)N(C)C (centres undefined) [TRIMEBUTINE] | 30 | 21 | > 30 | 15 | > 30 | > 30 | 0.19 | 0.2 | 26 | > 30 | > 30 | > 30 | 1.7
C[N@+]1(CCF)[C@@H]2CC[C@H]1C[C@@H](OC(=O)C(O)(c1ccccc1)c1ccccc1)C2 | > 30 | > 30 | 0.0031 | > 30 | > 30 | > 30 | 26 | > 30 | > 30 | > 30 | > 30 | > 30 | 2.38
CC(=O)O[C@H](CC(=O)[O-])C[N+](C)(C)C [ACETYLCARNITINE] | > 30 | > 30 | > 30 | > 30 | > 30 | > 30 | > 30 | > 30 | > 30 | > 30 | > 30 | > 30 | > 30
COc1ccc2nc3cc(Cl)ccc3c(Nc3cc(CN4CCCC4)c(O)c(CN4CCCC4)c3)c2n1 [PYRONARIDINE] | 15 | > 30 | 25 | 26 | > 30 | > 30 | 15 | > 30 | 24 | 14 | 5.7 | > 30 | 0.28

Continued, in another order:

AC50 (Adenosine receptor A3) [µM] | AC50 [1] [µM] | AC50 [2] [µM] | AC50 [3] [µM] | AC50 [4] [µM] | AC50 [5] [µM] | AC50 [7] [µM] | AC50 (Mu-type opioid receptor) [µM] | AC50 [8] [µM] | AC50 (Progesterone receptor) [µM] | AC50 [9] [µM] | AC50 [10] [µM] | Compound | AC50 [6] [µM]
> 30 | > 30 | > 30 | > 30 | > 30 | > 30 | > 30 | > 30 | > 30 | > 30 | > 30 | > 30 | CCCCCCCCCCCCCCCCCCCCCC(=O)Nc1ccn([C@@H]2O[C@H](CO)[C@@H](O)[C@@H]2O)c(=O)n1 [ENOCITABINE] | > 30
> 30 | > 30 | > 30 | > 30 | > 30 | > 30 | > 30 | > 30 | > 30 | > 30 | 13 | > 30 | COc1ccc(-c2noc(CC(=O)O)c2-c2ccc(OC)cc2)cc1 [MOFEZOLAC] | > 30
18.4 | > 30 | > 30 | > 30 | > 30 | > 30 | > 30 | > 30 | 25 | 0.003 | 30 | > 30 | CCCCCC(=O)O[C@]1(C(C)=O)CC[C@H]2[C@@H]3CCC4=CC(=O)CC[C@]4(C)[C@H]3CC[C@@]21C [HYDROXYPROGESTERONE CAPROATE] | > 30
> 30 | > 30 | > 30 | > 30 | > 30 | > 30 | > 30 | > 30 | > 30 | 0.024 | > 30 | > 30 | CCOC(=O)O[C@]1(C(=O)OCCl)CC[C@H]2[C@@H]3CCC4=CC(=O)C=C[C@]4(C)[C@H]3[C@@H](O)C[C@@]21C [LOTEPREDNOL ETABONATE] | > 30

Source: ChEMBL document CHEMBL5291721, “A preclinical secondary pharmacology resource illuminates target-adverse drug reaction associations of marketed drugs” (Nat Commun, 2023)
